What was measured:
PI-3 kinase γ [1] = molecular target: T1, PI-3 kinase γ (Homo sapiens, UniProt P48736); assay: PI3Kγ inhibitory activity (Ki value), HTRF assay; type: biochemical; details: calculated from IC50, test ATP 10 μM
Description: The PI3Kγ inhibitory activity (Ki value) of a compound was evaluated according to the following procedure.
5 μL of a compound solution comprising 10% DMSO and 200 μM of a compound was changed to 5 μL of a compound solution comprising 10% DMSO and 200, 64, 20, 6.4, 2, 0.64, or 0.20 μM of the compound (optionally, this is diluted to a lower concentration). By a method similar to the method for measuring PI3Kγ inhibitory activity, inhibition ratios were measured in the presence of the compound of 50, 16, 5, 1.6, 0.5, 0.16, and 0.05 μM (optionally, a lower concentration), and then an IC50 value was calculated by a logistic approximation method, or the linear regression method using two concentrations that across 50% inhibition. Separately, 5 μL of 40 μM ATP/10 mM MgCl2/5 mM DTT at the time of the start of a reaction in the absence of a compound was changed to 5 μL of 80, 40, 20, 10, 5, 2.5, 1.25, or 0.625 μM ATP/10 mM MgCl2/5 mM DTT, and then ratios of HTRF was measured by a similar method. The value of subtracting an HTRF ratio at each ATP concentration from an HTRF ratio in the absence of PI-3 kinase γ was defined as a value of multiplying reaction rate v by a constant to calculate the Michaelis-Menten constant Km by the Lineweaver-Burk plot method. A Ki value of a compound was calculated by the following formula.

PI-3 kinase γ [2] = molecular target: T1, PI-3 kinase γ; assay: PI3Kγ inhibitory activity, PI3-kinase HTRF assay (Millipore); type: biochemical; details: 0.5 h; compound 50 μM; read-out: Inhibition ratio % (50 μM)
Outline: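 HTRF assay: PI3Kγ preincubated 10 min with compound and PIP2 substrate in MgCl2/DTT buffer, then reaction started with ATP and run 30 min at room temperature before EDTA/biotin-PIP3 quench. Read after 18 h with Eu anti-GST/GST-PH domain/APC-streptavidin as 665/620 nm ratio; inhibition relative to no-compound (100%) and no-enzyme (0%) wells.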

Solubility test = type: physicochemical; details: 25 °C, fassgf or other biorelevant, kinetic from dmso stock, artificial intestinal juice pH 6.8, 1% DMSO, 25 degrees Celsius
Description: 10 mM compound solution was prepared using DMSO, and then 6 μL of the compound solution was added to 594 μL of artificial intestinal juice in pH 6.8 (to 250 mL of 0.2 mol/L potassium dihydrogen phosphate reagent solution was added 118 mL of 0.2 mol/L NaOH reagent solution and water to provide a final volume of 1000 mL). After standing at 25 degrees Celsius for 16 hours, the mixed solution was filtrated with suction. The filtrate was diluted twice with methanol/water (1/1), and then a concentration in the filtration was measured with HPLC or LC/MS/MS by the absolute calibration method.

CYP2D6 = molecular target: T2, CYP2D6 (Homo sapiens, UniProt P10635); assay: CYP inhibition test, pooled human liver microsome, O-demethylation of dextromethorphan; type: in vitro ADME
T2 construct: Using a pooled human liver microsome commercially available; from tissue; host or cells: pooled human liver microsomes
T2 sequence (P10635 whole entry): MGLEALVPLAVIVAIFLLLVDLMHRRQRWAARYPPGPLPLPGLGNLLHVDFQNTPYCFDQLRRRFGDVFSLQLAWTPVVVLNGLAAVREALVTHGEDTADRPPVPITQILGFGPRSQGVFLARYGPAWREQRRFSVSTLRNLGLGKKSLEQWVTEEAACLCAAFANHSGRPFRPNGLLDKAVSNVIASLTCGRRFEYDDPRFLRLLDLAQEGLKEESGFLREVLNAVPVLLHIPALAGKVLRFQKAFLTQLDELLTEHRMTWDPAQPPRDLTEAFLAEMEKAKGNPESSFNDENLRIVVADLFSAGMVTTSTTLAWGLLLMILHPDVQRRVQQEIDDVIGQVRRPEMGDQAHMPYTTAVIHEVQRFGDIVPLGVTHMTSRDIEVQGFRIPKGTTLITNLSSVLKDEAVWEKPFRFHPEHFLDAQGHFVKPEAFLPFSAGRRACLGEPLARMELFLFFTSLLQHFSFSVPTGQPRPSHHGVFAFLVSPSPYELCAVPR
Description: (§1) Using a pooled human liver microsome commercially available, and selecting as indexes O-de-ethylation of 7-ethoxyresorufin (CYP1A2), methyl-hydroxylation of tolbutamide (CYP2C9), 4′-hydroxylation of mephenyloin (CYP2C19), O-demethylation of dextromethorphan (CYP2D6), and hydroxylation of terfenadine (CYP3A4), which are typical substrate metabolic reactions of human main CYP5 molecular species (CYP1A2, 2C9, 2C19, 2D6, and 3A4), it was evaluated in what degree the amount of each metabolite produced was inhibited by a test compound.
(§2) The reaction condition is as follows: substrate, 0.5 μmol/L of ethoxyresorufin (CYP1A2), 100 μmol/L of tolbutamide (CYP2C9), 50 μmol/L of S-mephenyloin (CYP2C19), 5 μmol/L of dextromethorphan (CYP2D6), and 1 μmol/L of terfenadine (CYP3A4); reaction time, 15 minutes; reaction temperature, 37 degrees Celsius; enzyme, pooled human liver microsome 0.2 mg protein/mL; test drug concentration, 1, 5, 10, and 20 μmol/L (4 points).
(§3) To a 96-well plate was added five kinds of substrates, a human liver microsome, and a test drug in 50 mM Hepes buffer solution as a reaction solution in the aforementioned constitution. A coenzyme NADPH was added to start a metabolic reaction, which is an index. After reacting at 37 degrees Celsius for 15 minutes, a solution of methanol/acetonitrile (1/1 (v/v)) was added to quench the reaction. After centrifugation at 3000 rpm for 15 minutes, resorufine (CYP1A2 metabolite) in the supernatant was quantitated with a fluorescence multilabel counter, and hydroxylated tolbutamide (CYP2C9 metabolite), 4′-hydroxylated mephenyloin (CYP2C19 metabolite), […] (CYP2D6 metabolite), terfenadine in alcohol form (CYP3A4 metabolite) were quantitated with LC/MS/MS.
(§4) The case that only DMSO, a solvent which dissolved a drug, was added to a reaction system was defined as a control (100%). The remaining activity (%) at each concentration in cases that a test drug solution was added was calculated, and then IC50 was calculated with a concentration and an inhibition ratio by an inverse estimation using a logistic model.

CYP1A2 = molecular target: T3, CYP1A2 (Homo sapiens, UniProt P05177); assay: CYP inhibition test, pooled human liver microsome, O-de-ethylation of 7-ethoxyresorufin; type: in vitro ADME
T3 construct: Using a pooled human liver microsome commercially available; from tissue; host or cells: pooled human liver microsomes
T3 sequence (P05177 1-516): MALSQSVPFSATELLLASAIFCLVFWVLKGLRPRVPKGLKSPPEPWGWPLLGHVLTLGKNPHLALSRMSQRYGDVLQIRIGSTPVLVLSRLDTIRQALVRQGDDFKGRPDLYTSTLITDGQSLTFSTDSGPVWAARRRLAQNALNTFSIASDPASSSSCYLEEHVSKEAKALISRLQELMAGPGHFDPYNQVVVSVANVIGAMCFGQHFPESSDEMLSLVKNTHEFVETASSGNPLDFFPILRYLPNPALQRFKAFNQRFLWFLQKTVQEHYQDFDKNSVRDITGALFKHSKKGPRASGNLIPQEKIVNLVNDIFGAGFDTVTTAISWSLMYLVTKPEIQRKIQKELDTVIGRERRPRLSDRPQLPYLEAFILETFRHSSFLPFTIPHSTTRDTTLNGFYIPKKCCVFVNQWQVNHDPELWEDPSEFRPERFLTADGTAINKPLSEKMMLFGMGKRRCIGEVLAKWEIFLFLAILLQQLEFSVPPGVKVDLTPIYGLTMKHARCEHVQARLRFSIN
Description: as §1, §2, §3, §4

CYP2C19 = molecular target: T4, CYP2C19 (Homo sapiens, UniProt P33261); assay: CYP inhibition test, pooled human liver microsome, 4′-hydroxylation of mephenyloin; type: in vitro ADME; details: S-mephenyloin
T4 construct: Using a pooled human liver microsome commercially available; from tissue; host or cells: pooled human liver microsomes
T4 sequence (P33261 whole entry): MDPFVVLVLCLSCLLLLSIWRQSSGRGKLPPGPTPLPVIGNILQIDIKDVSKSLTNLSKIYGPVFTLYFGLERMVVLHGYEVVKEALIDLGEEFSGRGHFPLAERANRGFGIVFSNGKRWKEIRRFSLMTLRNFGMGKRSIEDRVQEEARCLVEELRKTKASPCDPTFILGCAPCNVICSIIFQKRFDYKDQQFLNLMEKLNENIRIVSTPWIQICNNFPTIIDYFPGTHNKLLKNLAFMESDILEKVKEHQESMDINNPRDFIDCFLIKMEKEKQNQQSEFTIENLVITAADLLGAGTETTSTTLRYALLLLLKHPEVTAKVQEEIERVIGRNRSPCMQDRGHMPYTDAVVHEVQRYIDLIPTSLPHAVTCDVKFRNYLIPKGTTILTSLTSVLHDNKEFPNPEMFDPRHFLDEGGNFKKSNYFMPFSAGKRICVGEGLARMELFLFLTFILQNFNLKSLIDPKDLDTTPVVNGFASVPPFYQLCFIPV
Description: as §1, §2, §3, §4

CYP3A4 = molecular target: T5, CYP3A4 (Homo sapiens, UniProt P08684); assay: CYP inhibition test, pooled human liver microsome, hydroxylation of terfenadine; type: in vitro ADME
T5 construct: Using a pooled human liver microsome commercially available; from tissue; host or cells: pooled human liver microsomes
T5 sequence (P08684 whole entry): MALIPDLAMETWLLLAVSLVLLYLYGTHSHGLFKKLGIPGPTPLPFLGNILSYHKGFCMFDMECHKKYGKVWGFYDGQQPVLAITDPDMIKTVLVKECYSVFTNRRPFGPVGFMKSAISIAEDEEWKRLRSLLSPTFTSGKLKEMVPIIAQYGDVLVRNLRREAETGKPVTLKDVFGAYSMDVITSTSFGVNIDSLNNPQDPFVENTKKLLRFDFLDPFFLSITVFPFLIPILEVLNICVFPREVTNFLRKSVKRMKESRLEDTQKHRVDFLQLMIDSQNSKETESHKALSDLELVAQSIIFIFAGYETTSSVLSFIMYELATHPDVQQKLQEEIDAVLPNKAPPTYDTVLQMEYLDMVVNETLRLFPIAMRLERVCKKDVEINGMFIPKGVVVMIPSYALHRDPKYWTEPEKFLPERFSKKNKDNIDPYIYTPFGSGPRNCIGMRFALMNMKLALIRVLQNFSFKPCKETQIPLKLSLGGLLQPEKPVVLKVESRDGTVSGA
Description: as §1, §2, §3, §4

CYP2C9 = molecular target: T6, CYP2C9 (Homo sapiens, UniProt P11712); assay: CYP inhibition test, pooled human liver microsome, methyl-hydroxylation of tolbutamide; type: in vitro ADME
T6 construct: Using a pooled human liver microsome commercially available; from tissue; host or cells: pooled human liver microsomes
T6 sequence (P11712 whole entry): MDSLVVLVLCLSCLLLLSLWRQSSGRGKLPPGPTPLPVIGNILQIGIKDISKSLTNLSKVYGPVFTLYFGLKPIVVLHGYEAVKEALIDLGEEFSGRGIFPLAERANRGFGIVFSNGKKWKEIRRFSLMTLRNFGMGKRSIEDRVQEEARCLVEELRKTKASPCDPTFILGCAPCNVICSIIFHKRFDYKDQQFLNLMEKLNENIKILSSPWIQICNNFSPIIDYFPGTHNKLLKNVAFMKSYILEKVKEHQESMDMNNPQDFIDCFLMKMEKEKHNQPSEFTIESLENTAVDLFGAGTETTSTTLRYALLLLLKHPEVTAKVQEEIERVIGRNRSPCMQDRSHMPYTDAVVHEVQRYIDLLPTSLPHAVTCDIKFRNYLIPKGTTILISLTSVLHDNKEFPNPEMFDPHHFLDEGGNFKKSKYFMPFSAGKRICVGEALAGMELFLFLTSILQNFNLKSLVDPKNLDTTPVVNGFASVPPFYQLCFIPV
Description: as §1, §2, §3, §4

T1 sequence (P48736 whole entry): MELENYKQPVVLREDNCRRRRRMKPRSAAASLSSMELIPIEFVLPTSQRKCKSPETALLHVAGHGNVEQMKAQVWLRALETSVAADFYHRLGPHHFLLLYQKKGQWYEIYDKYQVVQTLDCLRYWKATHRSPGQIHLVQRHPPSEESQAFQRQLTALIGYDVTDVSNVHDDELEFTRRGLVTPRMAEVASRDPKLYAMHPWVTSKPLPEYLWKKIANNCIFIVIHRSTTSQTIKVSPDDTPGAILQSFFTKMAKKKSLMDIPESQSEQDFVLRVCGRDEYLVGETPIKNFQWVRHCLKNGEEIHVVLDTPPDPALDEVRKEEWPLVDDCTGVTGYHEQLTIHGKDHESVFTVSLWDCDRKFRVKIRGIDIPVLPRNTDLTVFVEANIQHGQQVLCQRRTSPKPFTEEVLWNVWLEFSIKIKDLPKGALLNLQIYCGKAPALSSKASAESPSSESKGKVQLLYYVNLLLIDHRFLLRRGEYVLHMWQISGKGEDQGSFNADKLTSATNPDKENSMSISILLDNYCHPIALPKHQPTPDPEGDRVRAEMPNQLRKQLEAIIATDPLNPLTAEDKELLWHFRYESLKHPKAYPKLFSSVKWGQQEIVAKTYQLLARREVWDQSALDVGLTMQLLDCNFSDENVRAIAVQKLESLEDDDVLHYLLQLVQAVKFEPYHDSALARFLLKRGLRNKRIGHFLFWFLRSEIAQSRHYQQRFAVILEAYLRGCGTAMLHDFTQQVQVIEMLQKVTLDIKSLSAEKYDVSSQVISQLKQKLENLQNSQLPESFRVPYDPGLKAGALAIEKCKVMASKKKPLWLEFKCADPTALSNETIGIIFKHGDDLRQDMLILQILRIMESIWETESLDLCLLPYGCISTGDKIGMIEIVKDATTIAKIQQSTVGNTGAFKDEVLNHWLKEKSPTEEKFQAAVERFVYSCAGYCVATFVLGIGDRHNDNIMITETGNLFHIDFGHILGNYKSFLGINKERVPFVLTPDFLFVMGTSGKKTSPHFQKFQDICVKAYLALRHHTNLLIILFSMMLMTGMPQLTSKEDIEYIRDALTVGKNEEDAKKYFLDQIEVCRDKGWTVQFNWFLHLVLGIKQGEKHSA

Ki (PI-3 kinase γ [1]) [µM]	inhibition at 50 µM (PI-3 kinase γ [2]) [%]	solubility at 16 h (Solubility test) [µM]	IC50 (CYP2D6) [µM]	IC50 (CYP1A2) [µM]	IC50 (CYP2C19) [µM]	IC50 (CYP3A4) [µM]	IC50 (CYP2C9) [µM]	SMILES
0.046	85	> 50						COc1cccc(-c2ccc3nc(NC(=O)NCC(=O)O)cn3n2)c1 [Compound I-120]
0.074	89	> 50	> 20	> 20	> 20	> 20	> 20	COc1cncc(-c2ccc3nc(NC(=O)NCC(=O)O)cn3n2)c1 [Compound I-224]
0.052	83	> 50						CNC(=O)Nc1cn2nc(-c3cncc(OC)c3)ccc2n1 [Compound I-144]
	73		> 20	> 20	> 20	> 20	> 20	COc1cccc(-c2ccc3nc(NC(=O)NCCC(=O)O)cn3n2)c1 [Compound I-260]
	74	> 50	> 20	> 20	> 20	> 20	> 20	COc1cccc(-c2ccc3nc(NC(=O)NCc4nn[nH]n4)cn3n2)c1 [Compound I-292]
	61		> 20	> 20	> 20	> 20	> 20	COc1cccc(-c2ccc3nc(NC(=O)NCc4cc(=O)[nH]o4)cn3n2)c1 [Compound I-267]
